Experimental findings from patent US12521438B2, “SMARCA degraders and uses thereof” (Kymera Therapeutics, Inc., priority 2019, dated 2026) are described below.

What all share (assay type): cell-based
Assay [1] concerns the target T1, SMARCA4 (Homo sapiens, UniProt P51532).
T1 construct: endogenous in cells; host or cells: MV4-11
The experiment in a line: SMARCA4 Western blot MV4-11 degradation. To be noted: MV4-11 cells, 24 hours; for Dmax: read-out: SMARCA4 WB MV411 degradation 24h: Average Dmax %; for DC50: read-out: SMARCA4 WB MV411 degradation 24h: Average external-Abs DC50. The protocol: (§1) Example 10. SMARCA2 and SMARCA 4 Western Blot MV4-11 Degradation
(§2) Cells were seeded into 6-well plates (MV4-11: 4×10^6 cells/well/1 ml) and 1 ml of 2× compound solution was added into the well to make the final concentration and the plates were mixed well and incubated for 24 hours (No cytotoxicity was observed). The cell were collected with media and spun at 3000 rpm for 5 minutes. The supernatant was aspirated and the well and the cells were washed with cold PBS once and combined for centrifugation again; the supernatant aspirated again. 200 ul pre-chilled RIPAlysis buffer (Boston BioProducts BP-115D) with protease/phosphatase inhibitor (Roche 05892791001/Roche 04906837001) was directly added into the tube to lyze the cells for 20 minutes on ice. The cell lysate were collected into EP tubes and spun at 13000 rpm for 20 minutes and 72 ul supernatant was transferred to a fresh EP tube containing 18 ul of 5× loading buffer (Beyotime Bio P0015) to make the loading samples. The samples were heated to 100° C. for 10 minutes and cooled to RT and microcentrifuged. 20 ul of samples were loaded onto SDS-PAGE gel (Novex, WG1402BOX) and the gel was run at 80 V for 20 minutes and 120 V for 1.5 hours. The samples were electrotransfer to a NC membrane using wet-transfer method with 250 mA for 2.5 hours. The membrane was blocked with LICOR blocking buffer (LI-COR, 927-50000) for 1 hour. The membrane was washed three times with TBST (CST #9997S), 5 minutes each. Incubation was performed with primary antibody prepared in blocking buffer with 0.1% Tween-20 (Solarbio, P8220) at 4° C. overnight (Anti-SMARCA2/BRM antibody (ab15597) 1:500; Anti-BRG1 antibody [EPR3912] (ab108318) 1:1000; Rabbit anti-Baf180 antibody [EPR15860] (Abcam,ab196022) 1:1000; mouse anti-beta-Actin (8H10D10) (CST #3700) 1:10000). The membrane was washed three times with TBST, 5 minutes each. Incubation with secondary antibody was performed for 1 hour at RT (anti-rabbit IgG (Licor, 926-32211) 1:5000; anti-mouse IgG (LI-COR, 926-68070) 1:5000). The membrane was washed three times with 5 minutes each and lastly the LiCOR was read.

Assay [2] addresses T2, SMARCA2 (Homo sapiens, UniProt P51531). The experiment in a line: MSD SMARCA2 degradation in NCI-H1299 cell line. The arrangement: endogenous in cells. To be noted: NCI-H1299 cells, 24 hours. The protocol:
Example 8. MSD SMARCA2 Degradation in NCI-H1299 Cell Line
Cell Culture: Cells were Cultured in Exponential Growth Phase.
Compound Preparation and Treatment: NCI-H1299 cells were seeded into the 96-well plate at 4.0*10^4 cells per 100 ul per well. Incubate the plate in the incubator overnight. The next day, compounds were diluted to designed stock concentration by TECAN, then perform a 3 fold, 9-point dilution via transferring 15 uL compound into 30 μL DMSO using Apricot. 200 nL diluted compound from compound source plate were transferred into the 96-intermediate plate as designated by using Echo550, followed with 100 ul culture medium to make the 2× compound solution. Cell plate were changed with 80 ul of fresh culture medium and 80 ul of 2× compound solution was added into the well to achieve the final designed concentration. Cell plate was then shaken at 720 rpm for 5 min and incubated for 24 hours in the incubator.
Sample Preperation: Media was aspirated from the cultures and the plate was washed with PBS twice. 60 ul of pre-chilled PIPA lysis buffer (Boston BioProducts BP-115D) with protease inhibitor were directly added into the well to lyze the cells for 20 minutes at 4° C. Cell lysates were collected.
MSD Procedure: The MSD plate was coated with 40 ul cell lysate and incubated at 4° C. overnight. The next day, the MSD coated bare plate was washed 3 times with 150 ul 1×TBST per well, blocked with 150 ul of blocking buffer per well, and shaken for 1 hour at RT, 600 rpm. Blocking buffer was 3% Blocker A in TBST. MSD plate was then washed 3 times with 150 ul 1× TBST per well and Primary Detection antibody (Rabbit anti-SMARCA2/BRM antibody, 100 μg/ml, ab223735) was added to a final [conc.]: 0.3 ug/ml, 25 ul/well and shaken for 1 hour at RT, 600 rpm. Antibody was prepared in Antibody Detection buffer (1% Blocker A in 1×TBST). The MSD plate was then washed 3 times with 150 ul 1×TBST per well. Secondary Detection antibody (SULFO-TAG anti-species antibody) was then added to a final [conc.]: 1 ug/ml, 25 ul/well, and shaken for 1 hour at RT, 600 rpm. Antibodies were prepared in Antibody Detection buffer (1% Blocker A in 1×TBST). MSD plate was washed 3 times with 150 ul 1×TBST per well and 2× MSD reading buffer was added, 150 ul per well, and diluted from 4× with water. MSD instrument was then read.
Data Analysis: The percentage of relative level of SMARCA2 level was calculated following equation below.
LC: A2780, SMARCA2 negative cells. HC: NCI-H1299 cells treated with DMSO.

In assay [3] the target is T2, SMARCA2. The assay can be described thus: MSD SMARCA2 degradation in A549 cell line. Also noted: endogenous in cells; host or cells: A549. To be noted: A549 cells, 24 hours. The protocol: Example 9. MSD SMARCA2 Degradation in A549 Cell Line
Cells were seeded into 96-well plates (A549 cells: 2×10^4 cells/well/100 ul media) abd incubated overnight. The next day, 200 nl compound were added into the intermediate plate with Echo (Labcyte 550) from source plate containing a 3-fold serial dilution from top concentration of 1 mM. The culture medium was changed with 80 ul of fresh medium and 80 ul of 2× compound solution was added into the well to make a final concentration of 1000 nM, 333.3 nM, 111.1 nM, 37.04 nM, 12.35 nM, 4.115 nM, 1.372 nM, 0.457 nM, 0.152 nM and 0 nM (DMSO). The wells were mixed and then incubated for 24 hours. The media was aspirated from the cultures and 60 ul pre-chilled PIPA lysis buffer (Boston BioProducts BP-115D) with protease/phosphatase inhibitor (Roche 05892791001/Roche 04906837001) was added into the well to lyze the cells for 20 minutes at 4° C. The MSD plate (L15XA) was coated with 40 ul cell lysate and incubated at 4° C. overnight. The next day, the plate was washed three times with TBST (CST #9997S), 150 ul/well. The MSD plates was blocked with 150 ul blocking buffer per well and shaked for 1 hr at RT, 600 rpm. The blocking buffer was 3% Blocker A (MSD, R93BA-4) in TBST. The MSD plate was washed three times with 150 ul/well of TBST and 25 ul/well of detection antibody (Rabbit anti-SMARCA2/BRM antibody, 100 μg/ml, ab223735) was added at final concentration of 1 ug/ml diluted in 1% Blocking buffer and shaken for 1 hour at RT, 600 rpm. The MSD plate was washed three times with 150 ul/well of TBST and 25 ul/well of SULFO-TAG anti-rabbit antibody (MSD, R32AB-1) was added at final concentration of 1 ug/ml diluted in 1% Blocking buffer and shaken for 1 hour at RT, 600 rpm. The MSD plate was washed three times with 150 ul/well of TBST and 150 ul/well of 2×MSD reading buffer diluted from 4× (MSD, R92TC-2) with water was added. Lastly, the MSD instrument was read.

For assay [4], the target named is T2, SMARCA2. The assay can be described thus: SMARCA2 Western blot MV4-11 degradation. The arrangement: endogenous in cells. To be noted: MV4-11 cells, 24 hours. The protocol: as §1
as §2, with “The membrane was blocked with LICOR blocking buffer (LI-COR, 927-50000) for 1 hour. The membrane was washed three times with TBST (CST #9997S), 5 minutes each. Incubation was performed with primary antibody prepared in blocking buffer with 0.1% Tween-20 (Solarbio, P8220) at 4° C. overnight (Anti-SMARCA2/BRM antibody (ab15597) 1:500; Anti-BRG1 antibody [EPR3912] (ab108318) 1:1000; Rabbit anti-Baf180 antibody [EPR15860] (Abcam,ab196022) 1:1000; mouse anti-beta-Actin (8H10D10) (CST #3700) 1:10000). The membrane was washed three times with TBST, 5 minutes each. Incubation with secondary antibody was performed for 1 hour at RT (anti-rabbit IgG (Licor, 926-32211) 1:5000; anti-mouse IgG (LI-COR, 926-68070) 1:5000).” left out
For orientation: In western blotting, separated proteins are transferred to a membrane and probed.

T2 sequence (P51531 whole entry): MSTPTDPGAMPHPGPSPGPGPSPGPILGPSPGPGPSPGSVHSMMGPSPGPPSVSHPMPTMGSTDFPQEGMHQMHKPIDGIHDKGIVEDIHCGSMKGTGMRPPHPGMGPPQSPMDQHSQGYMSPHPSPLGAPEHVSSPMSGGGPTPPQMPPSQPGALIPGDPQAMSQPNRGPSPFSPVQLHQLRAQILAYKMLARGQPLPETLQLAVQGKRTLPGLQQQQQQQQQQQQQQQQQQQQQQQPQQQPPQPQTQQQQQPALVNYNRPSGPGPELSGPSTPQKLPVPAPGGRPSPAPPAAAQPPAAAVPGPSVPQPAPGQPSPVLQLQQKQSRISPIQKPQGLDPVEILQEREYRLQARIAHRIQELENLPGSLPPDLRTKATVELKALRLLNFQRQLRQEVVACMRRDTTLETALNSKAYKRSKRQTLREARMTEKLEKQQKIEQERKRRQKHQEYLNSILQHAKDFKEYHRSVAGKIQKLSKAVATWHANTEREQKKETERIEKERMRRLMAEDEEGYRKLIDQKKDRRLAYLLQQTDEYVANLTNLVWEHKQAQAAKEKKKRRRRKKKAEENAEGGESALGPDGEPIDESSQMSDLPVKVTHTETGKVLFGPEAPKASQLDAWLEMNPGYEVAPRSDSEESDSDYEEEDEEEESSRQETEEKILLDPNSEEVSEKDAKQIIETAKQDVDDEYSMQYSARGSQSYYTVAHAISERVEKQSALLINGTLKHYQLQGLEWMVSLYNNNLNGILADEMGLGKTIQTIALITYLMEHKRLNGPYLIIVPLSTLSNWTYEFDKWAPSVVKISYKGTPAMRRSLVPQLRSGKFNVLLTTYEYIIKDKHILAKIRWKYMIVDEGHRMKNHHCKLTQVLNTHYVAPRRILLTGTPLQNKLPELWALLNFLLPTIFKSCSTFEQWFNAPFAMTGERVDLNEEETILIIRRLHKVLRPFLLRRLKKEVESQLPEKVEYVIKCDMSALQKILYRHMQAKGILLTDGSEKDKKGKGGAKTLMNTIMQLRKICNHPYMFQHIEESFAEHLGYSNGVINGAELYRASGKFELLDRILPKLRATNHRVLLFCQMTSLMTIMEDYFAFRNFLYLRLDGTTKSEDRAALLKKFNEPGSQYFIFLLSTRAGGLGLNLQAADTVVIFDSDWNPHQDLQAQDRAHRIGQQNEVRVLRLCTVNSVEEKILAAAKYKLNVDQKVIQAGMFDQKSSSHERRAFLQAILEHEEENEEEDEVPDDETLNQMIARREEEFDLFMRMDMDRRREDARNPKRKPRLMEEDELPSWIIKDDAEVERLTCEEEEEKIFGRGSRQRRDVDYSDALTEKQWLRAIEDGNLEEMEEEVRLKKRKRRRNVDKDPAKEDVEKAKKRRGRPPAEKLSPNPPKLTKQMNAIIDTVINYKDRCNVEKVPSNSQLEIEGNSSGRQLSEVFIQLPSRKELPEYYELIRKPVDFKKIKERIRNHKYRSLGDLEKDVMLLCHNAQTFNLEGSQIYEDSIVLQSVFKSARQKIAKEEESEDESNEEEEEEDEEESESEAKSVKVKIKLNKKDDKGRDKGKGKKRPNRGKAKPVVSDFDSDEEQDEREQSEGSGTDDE
T1 sequence (P51532 whole entry): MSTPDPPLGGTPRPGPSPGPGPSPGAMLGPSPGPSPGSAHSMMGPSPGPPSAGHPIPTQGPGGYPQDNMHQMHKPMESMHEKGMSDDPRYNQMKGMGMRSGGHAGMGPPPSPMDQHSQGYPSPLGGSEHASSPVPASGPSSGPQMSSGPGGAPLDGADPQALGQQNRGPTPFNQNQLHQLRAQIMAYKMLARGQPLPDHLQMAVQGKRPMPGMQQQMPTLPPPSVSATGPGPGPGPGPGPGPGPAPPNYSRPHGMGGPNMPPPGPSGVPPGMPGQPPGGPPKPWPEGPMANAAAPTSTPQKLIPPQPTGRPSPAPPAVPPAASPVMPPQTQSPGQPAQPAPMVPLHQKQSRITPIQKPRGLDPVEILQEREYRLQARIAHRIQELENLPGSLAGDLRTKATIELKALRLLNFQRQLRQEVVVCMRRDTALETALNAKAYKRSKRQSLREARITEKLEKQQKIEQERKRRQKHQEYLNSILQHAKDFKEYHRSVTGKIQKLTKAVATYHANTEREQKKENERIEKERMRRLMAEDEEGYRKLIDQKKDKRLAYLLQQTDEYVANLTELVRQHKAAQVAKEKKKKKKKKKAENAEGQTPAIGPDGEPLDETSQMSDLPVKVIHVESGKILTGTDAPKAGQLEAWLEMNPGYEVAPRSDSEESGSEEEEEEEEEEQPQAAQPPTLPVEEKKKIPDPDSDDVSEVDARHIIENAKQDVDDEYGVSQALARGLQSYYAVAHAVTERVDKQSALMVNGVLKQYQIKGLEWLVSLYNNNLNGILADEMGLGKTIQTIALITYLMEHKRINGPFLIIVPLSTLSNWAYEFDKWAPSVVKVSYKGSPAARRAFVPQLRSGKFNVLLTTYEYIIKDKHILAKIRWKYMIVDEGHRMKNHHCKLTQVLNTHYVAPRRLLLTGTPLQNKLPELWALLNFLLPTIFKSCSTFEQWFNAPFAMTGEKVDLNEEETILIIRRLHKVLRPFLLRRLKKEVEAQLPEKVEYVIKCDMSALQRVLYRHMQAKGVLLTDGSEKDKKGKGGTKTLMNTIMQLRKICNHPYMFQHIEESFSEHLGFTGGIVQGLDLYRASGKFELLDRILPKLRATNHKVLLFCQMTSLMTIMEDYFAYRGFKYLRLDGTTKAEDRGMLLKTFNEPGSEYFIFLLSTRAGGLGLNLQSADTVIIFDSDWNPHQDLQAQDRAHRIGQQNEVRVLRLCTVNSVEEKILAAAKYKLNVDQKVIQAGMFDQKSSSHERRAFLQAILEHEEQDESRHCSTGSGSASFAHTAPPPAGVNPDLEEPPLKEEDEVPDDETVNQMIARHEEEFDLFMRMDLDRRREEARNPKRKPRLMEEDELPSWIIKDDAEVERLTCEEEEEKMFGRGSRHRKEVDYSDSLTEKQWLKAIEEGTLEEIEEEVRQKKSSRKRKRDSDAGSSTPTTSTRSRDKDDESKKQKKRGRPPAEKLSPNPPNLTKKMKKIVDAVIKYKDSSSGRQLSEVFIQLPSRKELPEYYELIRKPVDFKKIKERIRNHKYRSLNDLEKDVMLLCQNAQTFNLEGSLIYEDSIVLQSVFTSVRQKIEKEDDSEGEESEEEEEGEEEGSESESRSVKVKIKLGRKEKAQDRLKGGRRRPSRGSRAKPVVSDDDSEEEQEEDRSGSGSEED

As usually defined, the Dmax is the largest share of the target that was removed. As a reminder, the DC50 is the concentration giving 50% degradation. As to `Cn1c(=O)n(C2CCC(=O)NC2=O)c2cccc(CCCOCCCN3CCC(c4c[nH]c5nnc(-c6ccccc6O)cc45)CC3)c21` (centres unmarked) [I-6], the Dmax in assay [1] and in assay [2] was less than 50% in each case. Also, in assay [1], the DC50 fell in the range of 100 to 500 nM.

Turning to `Cn1c(=O)n(C2CCC(=O)NC2=O)c2cccc(CCCCCN3CCC(c4c[nH]c5nnc(-c6ccccc6O)cc45)CC3)c21` (centres unmarked) [I-10], in assay [1], the Dmax was less than 50% and the DC50 was less than 100 nM. The compound also had a Dmax in assay [2] of less than 50%.

Compound `Cc1ncsc1-c1ccc(CNC(=O)[C@@H]2C[C@@H](O)CN2C(=O)[C@@H](NC(=O)CCCCCCCN2CCC(c3c[nH]c4nnc(-c5ccccc5O)cc34)CC2)C(C)(C)C)cc1` [I-12] showed a Dmax in assay [2] of less than 50%.

For `Cc1ncsc1-c1ccc(CNC(=O)[C@@H]2C[C@@H](O)CN2C(=O)[C@@H](NC(=O)[C@H]2CC[C@H](c3cnc(N4CCC(c5c[nH]c6nnc(-c7ccccc7O)cc56)CC4)nc3)CC2)C(C)(C)C)cc1` [I-46, (2S,4R)-4-hydroxy-1-((S)-2-((1r,4S)-4-(2-(4-(3-(2-hydroxyphenyl)-7H-pyrrolo[2,3-c]pyridazin-5-yl)piperidin-1-yl)pyrimidin-5-yl)cyclohexanecarboxamido)-3,3-dimethylbutanoyl)-N-(4-(4-methylthiazol-5-yl)benzyl)pyrrolidine-2-carboxamide], the values for the Dmax in assay [3], in assay [4] (read-out: SMARCA2 WB MV411 degradation 24h: Average Dmax %) and in assay [1] were more than 90%, more than 90% and 50 to 70%, respectively. Also, the DC50 is less than 100 nM in assay [3] (read-out: SMARCA2 MSD A549 degradation 24h: Average external-Abs DC50), less than 100 nM in assay [4] (read-out: SMARCA2 WB MV411 degradation 24h: Average external-Abs DC50) and more than 1000 nM in assay [1].

`Cc1ncsc1-c1ccc(CNC(=O)[C@@H]2C[C@@H](O)CN2C(=O)[C@@H](NC(=O)CCCCCN2CCC(c3c[nH]c4nnc(-c5ccccc5O)cc34)CC2)C(C)(C)C)cc1` [I-9] displayed a Dmax in assay [2] of less than 50%.

In the case of `Cn1c(=O)n(C2CCC(=O)NC2=O)c2ccc(CCCCCCCCCN3CCC(c4c[nH]c5nnc(-c6ccccc6O)cc45)CC3)cc21` (centres unmarked) [I-7], in assay [1], the Dmax is less than 50% and the DC50 was less than 100 nM. This compound yielded a Dmax in assay [2] of less than 50%.

In the case of `Cn1c(=O)n(C2CCC(=O)NC2=O)c2cccc(CN3CCC(c4c[nH]c5nnc(-c6ccccc6O)cc45)CC3)c21` (centres unmarked) [I-13], in assay [1], the Dmax was less than 50% and the DC50 is less than 100 nM. This compound also showed a Dmax in assay [2] of less than 50%.

For the compound `Cc1ncsc1-c1ccc(CNC(=O)[C@@H]2C[C@@H](O)CN2C(=O)[C@@H](NC(=O)CCCCCCCCCN2CCC(c3c[nH]c4nnc(-c5ccccc5O)cc34)CC2)C(C)(C)C)cc1` [I-8], in assay [2], the Dmax fell in the range of 50 to 70%.

As to `Cn1c(=O)n(C2CCC(=O)NC2=O)c2cccc(CCCN3CCC(c4c[nH]c5nnc(-c6ccccc6O)cc45)CC3)c21` (centres unmarked) [I-11, 3-(4-(3-(4-(3-(2-hydroxyphenyl)-7H-pyrrolo[2,3-c]pyridazin-5-yl)piperidin-1-yl)propyl)-3-methyl-2-oxo-2,3-dihydro-1H-benzo[d]imidazol-1-yl)piperidine-2,6-dione], the Dmax in assay [1] and in assay [2] was less than 50% in each case.
